Reference: US20050084839A1, “Method for selecting oocytes by using a response to LPA stimulation” (Hitachi, Ltd., priority 2003, published 2005)
Where “and” joins values, the source holds several entries; their conditions need not be identical. Equal values may be shown once.

Tested on: LPAR expressed endogenously in Xenopus laevis oocytes
Assay: Current response of oocytes to LPA stimulation (two-electrode voltage clamp)
Format: cell-based
Conditions: 1 nM LPA; for Response to LPA, Average: average of six cells, −60 mV; for Response to LPA (difference between current value before LPA stimulation and peak current value after): individual cells, membrane potential fixed to −60 mV
Excerpt: First, an ovary is extracted from a female Xenopus laevis by a conventional method, and oocytes are isolated from the ovary by an enzymic treatment or the like. Oocytes not suitable for experiments are removed by a microscopic observation of their appearances such as size, shape, color and pattern. From the remaining group of oocytes, several cells, preferably 3 to 10 cells, more preferably 4 to 7 cells, and most preferably 6 cells are extracted at random. The membrane potential of the extracted oocytes is fixed to a constant voltage, for example, […] to −40 mV or +20 mV to +60 mV, preferably −60 mV by a known method such as two-electrode voltage clamp method or patch clamp method (See, e.g., Shin pacchikuranpu jikkengijutuhou, ed. Okada Yasunobu, Yoshiokashoten, Joron Ion Chaneru, pp. 1-14). By fixing the membrane potential, it is possible to measure the ionic current passing through channels or transporters of electrically resistant nature.
To the oocyte after fixing to a certain potential was added about 1 pM to 10 μM, preferably 100 pM to 100 nM, and most preferably 10 nM of LPA, followed by measurement of current response of the oocyte. An average current response is determined for a group of oocytes measured where the current response to LPA stimulation is the difference between the peak current value before LPA addition and the peak current value after LPA addition, providing the response of GPCR for a group of oocytes containing a brood of oocytes. A group of oocytes having a response of GPCR higher than a certain desirable value or within a certain desirable range are selected. The oocytes belonging to the group of oocytes selected in this way originate from a mother, and therefore, each oocyte has genetically nearly equal response of GPCR and may be considered excellent in response of GPCR.
Ovaries were extracted from mother bodies A, B, and C, and their follicle cells were removed by a conventional method. The oocytes after removal of follicles were selected based on their appearances that seemed suitable for experiments, and groups of oocytes were saved separately for each mother body (batches A, B, and C). From each batch, six oocytes were extracted at random, respectively.
The membrane potential of each cell was fixed to −60 mV by the two-electrode voltage clamp method. Each cell was stimulated by 1 nM LPA, and then the current response was measured. The difference between the current value before LPA stimulation and the peak current value after LPA stimulation was determined for each cell and shown in Table 1. There were differences in the responses to LPA among the batches.

Lysophosphatidic acid [LPA]
Response to LPA, Average (Batch A oocytes): 0.8 μA | Response to LPA (difference between current value before LPA stimulation and peak current value after) (Batch A oocytes): 1.1 μA and 1.5 μA and 0.6 μA (2×) and 0.3 μA and 0.8 μA | Response to LPA, Average (Batch B oocytes): 2.0 μA | Response to LPA (difference between current value before LPA stimulation and peak current value after) (Batch B oocytes): 2.5 μA and 1.8 μA and 2.6 μA and 1.1 μA and 2.3 μA and 1.4 μA | Response to LPA, Average (Batch C oocytes): 0.2 μA | Response to LPA (difference between current value before LPA stimulation and peak current value after) (Batch C oocytes): 0.1 μA (2×) and 0.3 μA and 0.4 μA and 0.0 μA and 0.2 μA
